Test results taken from patent publication US20060141064A1, “Herbal formulation useful as local anesthetic” (priority 2004, published 2006).

Legend:
guinea pig [1] = assay: Local anesthetic properties, guinea pig wheal method, topical application (Table 1); type: in vivo; set-up: key: a positive (+) response is recorded, showing no anesthetic activity; loss in sensation (−); settings: 2% w/w, n = 6
guinea pig [2] = assay: Local anesthetic properties, intradermal wheal method in guinea pigs, intradermal injection (Table 2); type: in vivo; settings: 2% w/w, n = 6
Procedure: Intra Dermal Wheal Method in Guinea Pigs:
The hairs on the back of guinea pigs were shaved. The normal response of the animal with a pinprick on both sides of the back was tested with 0.2 ml of the herbal formulations were injected intradermally on the left side and 0.2 ml of a normal saline (0.9%) was injected on the right side of the back. The sides were demarcated by ink. Six pinpricks were applied at interval of 2 to 3 s. Pinpricks were repeated after every 5 min. Animals showing no squeak response to all the six pinpricks were considered positive to anaesthetic effect.

## CCN(CC)CC(=O)Nc1c(C)cccc1C [Lignocaine]
Guinea pig [1]; 0 min
  Response at 0 minutes after topical application: +
Guinea pig [1]; 5 min
  Response at 5 minutes after topical application: +
Guinea pig [1]; 10 min
  Response at 10 minutes after topical application: −
Guinea pig [1]; 15 min
  Response at 15 minutes after topical application: −
Guinea pig [1]; 20 min
  Response at 20 minutes after topical application: −
Guinea pig [1]; 30 min
  Response at 30 minutes after topical application: −
Guinea pig [1]; 45 min
  Response at 45 minutes after topical application: −
Guinea pig [1]; 60 min
  Response at 60 minutes after topical application: −
Guinea pig [1]; 120 min
  Response at 120 minutes after topical application: −
Guinea pig [2]; 0 min
  Response at 0 minutes after intradermal injection: +
Guinea pig [2]; 5 min
  Response at 5 minutes after intradermal injection: −
Guinea pig [2]; 10 min
  Response at 10 minutes after intradermal injection: −
Guinea pig [2]; 15 min
  Response at 15 minutes after intradermal injection: −
Guinea pig [2]; 20 min
  Response at 20 minutes after intradermal injection: −
Guinea pig [2]; 30 min
  Response at 30 minutes after intradermal injection: −
Guinea pig [2]; 45 min
  Response at 45 minutes after intradermal injection: −
Guinea pig [2]; 60 min
  Response at 60 minutes after intradermal injection: −
